# Measured values: PubChem BioAssay (NCI)
#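 Interpolation was linear, between the two tested concentrations surrounding the appropriate level; five concentrations were tested over 48 hours in 96-well plates. GI50 marks 50% less growth. The concentration for full growth arrest is given as TGI.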
# How the values were obtained:
# Experiment in all cases: growth of human tumour cells (NCI), 48 h
# [1] = test system: SF-295 CNS
# [2] = test system: HCC-2998 colon
# [3] = test system: HL-60(TB) leukemia
# [4] = test system: SW-620 colon
# [5] = test system: UACC-257 melanoma
# [6] = test system: NCI-H522 lung
# [7] = test system: NCI-H226 lung
# [8] = test system: UO-31 renal
# [9] = test system: MCF7 breast
# [10] = test system: PC-3 prostate
Compound,TGI [1] [µM],TGI [2] [µM],TGI [3] [µM],TGI [4] [µM],TGI [5] [µM],TGI [6] [µM],TGI [7] [µM],TGI [8] [µM],GI50 [9] [µM],TGI [9] [µM],GI50 [1] [µM],GI50 [2] [µM],GI50 [3] [µM],GI50 [4] [µM],GI50 [5] [µM],GI50 [6] [µM],GI50 [8] [µM],GI50 [10] [µM],TGI [10] [µM],GI50 [7] [µM]
Cc1ccc(/C=C/C(=O)c2ccc([N+](=O)[O-])cc2)cc1,> 100,> 100,> 100,> 100,> 100,> 100,> 100,> 100,,,,,,,,,,,,
O=C(c1ccco1)c1nc2cc(C(F)(F)F)ccc2[n+]([O-])c1C(F)(F)F,> 100,> 100,> 100,> 100,> 100,> 100,,> 100,6.57,> 100,51.3,> 100,78.1,37.5,69.8,34.1,58.8,43.3,> 100,
O=C1CCSC(=S)N1c1ccc(Br)c(Cl)c1,73.1,,75.9,91.6,37.8,42.6,63.9,82,,48.6,,,,,,,,,> 100,
C=C1CCC2C(C)(CO)C(O)CCC2(C)C1C/C=C1/CCOC1=O (stereo not given),> 100,> 100,> 100,> 100,> 100,> 100,> 100,> 100,,,,,,,,,,,,
Cc1cc(NCc2cc(Nc3ccnc4cc(Cl)ccc34)ccc2F)nc(N2CCSCC2)n1,2.76,4.04,,,,4.49,12.1,2.87,1.64,4.18,1.31,1.96,,,,1.96,1.38,1.5,4.35,2.71
COc1ccc(-c2nnc(SCC(=O)Nc3ccc(C(=O)/C=C/c4cc(OC)c(OC)c(OC)c4)cc3)n2-c2ccccc2)cc1OC,> 10,> 10,> 10,> 10,> 10,,8.06,> 10,0.382,> 10,> 10,3.08,6.44,2.45,> 10,,> 10,6.89,> 10,2.29
COc1ccc(N=Nc2c(-c3ccccc3)nn(C(=O)CC(=O)Nc3ccccc3Cl)c2-c2ccccc2)cc1,> 100,> 100,> 100,> 100,> 100,> 100,> 100,> 100,,,,,,,,,,,,
COc1ccc(/C=C\c2cc(OC)c(OC)c(OC)c2)cc1OCC(=O)Nc1nc2ccccc2s1,0.646,> 100,> 100,> 100,> 100,0.338,,> 100,0.113,> 100,0.22,0.447,0.0275,0.0359,11,0.049,0.381,0.183,> 100,
Cc1cccc(C(C)C)c1NC(=O)CCl,> 100,> 100,> 100,> 100,> 100,30,> 100,> 100,,,,,,,,,,,,
CC(C)CN1CC(C)C(=O)NC1=O (stereo not given),> 100,,> 100,> 100,> 100,> 100,> 100,> 100,,,,,,,,,,,,
CN(C)C(=S)/N=c1\ss/c(=N\C(=S)N(C)C)n1Cc1ccco1,,> 100,> 100,> 100,> 100,> 100,> 100,> 100,,,,,,,,,,,,
COc1ccc(OC(C)C(=O)O)c2c1CCCC2=O (stereo not given),> 100,> 100,> 100,> 100,> 100,> 100,> 100,> 100,,,,,,,,,,,,
CC(=O)Nc1ccc(-c2csc(Nc3cccc(-c4csc(-c5ccccc5)n4)c3)n2)cc1,> 50,> 50,> 50,> 50,> 50,> 50,,> 50,20,> 50,14.7,12.5,29.7,> 50,19,24.2,16.7,14.7,> 50,
COc1ccc(-c2nc(-c3ccccn3)c(-c3ccccn3)n2CC(C)C)cc1OC1CCCC1,106,,58.8,> 165,95.3,81.3,> 165,142,6.58,115,9.56,,21.2,42,26.2,31.4,7.43,11.1,83.8,21.3
CCOC(=O)C(=O)Nc1ccccc1OCC,> 100,> 100,> 100,> 100,> 100,> 100,> 100,> 100,,,,,,,,,,,,
OCC(O)COc1c(Cl)cc(Cl)cc1Cl (stereo not given),> 100,> 100,> 100,> 51.9,> 100,> 100,> 100,> 100,,,,,,,,,,,,
O=C1CCCC(O)=C1SC1=C(O)CCCC1=O,> 100,> 100,> 100,> 100,> 100,> 100,> 100,> 100,,,,,,,,,,,,
O=C(c1nn(-c2ccc(Cl)cc2)cc1O)n1nc(C(F)(F)F)cc1-c1ccccc1,> 65.6,> 100,> 100,> 100,18.2,,> 40.7,> 100,3.38,> 100,0.478,9.4,2.42,4.51,2.25,,2.9,13.9,> 100,2.17
O=C(Oc1ccccc1Cl)c1ccccc1Nc1cccc(C(F)(F)F)c1,54.3,26.7,,54.4,76,52.4,47.9,> 100,33.9,> 100,24.8,12.6,,8.07,26.4,19.5,30.9,26,> 100,20.2
O=c1ccn(C2(CO)C=C(CO)C(O)C2O)c(=O)[nH]1 (stereo not given),,> 25.7,> 25.7,> 25.7,> 25.7,> 25.7,> 25.7,> 25.7,,,,,,,,,,,,
CCC(C)c1cccc(C)c1NC(=O)C(=O)Cc1nc2ccccc2s1 (stereo not given),> 100,> 100,> 100,> 100,> 100,> 100,,> 100,,,,,,,,,,,,

Compound,TGI [1] [µM],TGI [2] [µM],TGI [3] [µM],TGI [4] [µM],TGI [5] [µM],TGI [6] [µM],TGI [7] [µM],TGI [8] [µM],GI50 [9] [µM],TGI [9] [µM],GI50 [1] [µM],GI50 [2] [µM],GI50 [3] [µM],GI50 [4] [µM],GI50 [5] [µM],GI50 [6] [µM],GI50 [8] [µM],GI50 [10] [µM],TGI [10] [µM],GI50 [7] [µM]
O=C(/C=C/c1ccccc1O)c1cccc2ccccc12,> 100,> 100,> 80.8,> 46.9,> 100,> 100,> 100,> 100,,,,,,,,,,,,
COC1C(CO)OC(n2c3c(Cl)cccc3c3c4c(c5c6cccc(Cl)c6[nH]c5c32)C(=O)NC4=O)C(O)C1O (stereo not given),4.32,> 20,,> 100,1.75,10.5,0.666,2.6,,4.86,,,,,,,,,> 100,
Nc1c(C(=O)NC23CC4CC(CC(C4)C2)C3)[n+]([O-])c2ccccc2[n+]1[O-],> 100,> 100,> 100,> 100,> 100,> 100,> 100,> 100,,,,,,,,,,,,
CC(C)C[CH2][Ge]([CH2]CC(C)C)([CH2]CC(C)C)[CH2]CC(C)C,> 100,,> 100,> 100,> 100,> 100,> 100,> 100,> 100,> 100,> 100,,> 100,> 100,> 100,> 100,> 100,> 100,> 100,> 100
N#Cc1cc([N+](=O)[O-])ccc1NC(=O)C(=O)C(C(=O)c1ccc2ccccc2c1)C1OCc2ccccc21 (stereo not given),23.9,22.7,46.7,41.1,28.2,13.8,4.46,26.5,,,,,,,,,,,,
O=S1c2ccccc2NC(c2ccc3ccccc3c2)CC1c1ccccc1 (stereo not given),55,36,55.3,42.7,> 100,42.4,48.9,47.9,,,,,,,,,,,,
Cc1cn([C@H]2C[C@H](O)[C@@H](CO)O2)c(=O)nc1N,> 100,,> 100,> 100,> 100,> 100,> 100,> 100,,> 100,,,,,,,,,> 100,
CCCC(=O)c1ccc(=O)n(C)c1,> 100,> 100,> 100,> 100,,> 100,> 100,> 100,,,,,,,,,,,,
O=C(Cc1ccc(Nc2ccnc(C(F)(F)F)c2)cc1)Nc1cc(Cl)ccc1O,11.9,28.4,5.35,21.4,49.8,,32.3,18.2,4.99,42.8,3.06,13.6,1.7,6.23,11.8,,2.84,2.58,12.4,10.3
O=C(Oc1ccc2c(-c3ccccc3)c(C(=O)Nc3ccc(Cl)cc3)c(=O)oc2c1)c1ccccc1,> 100,,> 100,> 100,> 100,> 100,> 100,> 100,,,,,,,,,,,,
O=C(Cc1csc2nc(-c3ccc(Br)cc3)cn12)N/N=C/c1ccc(Cl)cc1Cl,> 100,44.8,,60.2,> 100,> 100,92.2,> 100,> 100,> 100,34.7,20,,23,68.9,25.8,72.4,30.2,> 100,31.8
O=C(O)c1cn(C2CC2)c2cc(N3CCNCC3)c(F)cc2c1=O,,> 100,,> 100,> 100,> 100,> 100,> 100,> 100,> 100,,98,,> 100,> 100,> 100,> 100,> 100,> 100,> 100
CCOc1ccc(NCC2CC/C(=C\c3ccc(Cl)cc3)C2=O)cc1 (stereo not given),> 100,18,37.3,39.6,> 56.1,13.9,> 100,> 58.5,,,,,,,,,,,,
COc1cc2cnc(-c3ccccc3)cc2cc1OC,45.1,,59.7,> 100,53.3,53,45.8,> 100,,> 100,,,,,,,,,77.5,
CN(C(=O)C12C3C4C1C1C2C3C41C(O)C(C)(C)C)C(C)(C)C (stereo not given),> 100,> 100,> 100,> 100,> 100,> 100,> 100,> 100,,,,,,,,,,,,
CC(=O)OCCOCNC(=S)N/N=C(\C)c1cccs1,> 100,> 100,> 100,> 100,> 100,> 100,> 100,> 100,,,,,,,,,,,,
c1ccc2c(c1)Sc1ccccc1N2C1CN2CCC1CC2 (stereo not given),32.2,29,32,33.2,31.8,38.9,18.9,39.6,,,,,,,,,,,,
CN1C(=O)CCC1c1ccc2c(c1)oc(=O)n2C (stereo not given),> 100,> 100,> 100,> 100,> 100,> 100,> 100,> 100,,,,,,,,,,,,
ClC1c2ccccc2C2(c3ccccc3)OOC1(c1ccccc1)O2 (stereo not given),5.85,6.24,0.309,2.96,3.65,0.8,4.08,3.06,,,,,,,,,,,,
CNc1ccc([N+](=O)[O-])c2c(NCCCN(C)C)ccnc12,> 100,> 100,> 100,> 100,> 100,> 100,> 100,> 100,,,,,,,,,,,,
